“And” between values parts separate entries of the source, which are not always exact repeats. Equal entries are not always repeated. *1 amine or outer side, *2 acyl side, *3 side chain or, on linkers, in order; H or OH if unused. Where no end group is shown, it is not given here. [ ]: non-standard residue; d: D form. Benzoyl(5-NH,2-NO2) = O=C(c1cc(N[*:1])ccc1[N+](=O)[O-])[*:2]; 2Abz = Nc1ccccc1C(=O)O
Tests used:
Assay type in all cases: biochemical, human
[1] = tested on: urine samples from patients with another neoplastic disease; experiment: Cleavage selectivity: substrate incubated with urine from patients with other cancers; conditions: for Measurement 1-3 (increase in absorbance): urine, triplicate
Experimental: (§1) The activity of the novel compounds according to the invention was studied in a group of 20 subjects diagnosed with liver cancer using the representative compound according to the invention. […] The remaining compounds according to the invention are characterized by the analogous mechanism of action. For this purpose, the representative compound according to the invention, ABZ^1-Lys^2-Ser^3-Ser^4-Asp^5-ANB^6-NH2, was dissolved in dimethyl sulfoxide (at a concentration of 0.5 mg/mL) and then 50 μL of the solution was mixed with 120 μL of a buffer (200 mM Tris-HCl, pH 8.0) and 80 μL of urine from a subject suffering from liver cancer. The measurement was performed on a 96-well plate designed for measuring absorbance and each sample was analysed in triplicate at the temperature of 37° C. The duration of the measurement was 60 minutes. During the measurement, the wavelength characteristic for the chromophore (ANB-NH2) being released was monitored at the wavelength 405 nm (range 380-430 nm).
Furthermore, the dependence of the cleavage selectivity of the substrate, i.e. the compound according to the invention, on the cancer being examined, was studied. […] This indicates cleavage selectivity of the compounds according to the invention, which makes them suitable for the specific detection of enzymatic activity specific to liver cancer and specific diagnosis of liver cancer.

[2] = tested on: urine taken from a person diagnosed with liver cancer; experiment: RP HPLC analysis of substrate cleavage in urine with liver cancer; conditions: randomly selected urine from a person diagnosed with liver cancer
[3] = tested on: enzyme in the studied material (urine); experiment: Dependence of substrate hydrolysis on reaction pH; conditions: FIG. 4
Experimental: Furthermore, measurements concerning the dependence of the proteolytic activity of the representative compound according to the invention on the reaction pH were performed.

[4] = tested on: proteolytic enzymes in urine from a subject suffering from liver cancer; experiment: Hydrolysis of the chromogenic substrate in urine from subjects with liver cancer (absorbance at 405 nm); conditions: for Results of absorbance analysis (increase in absorbance, 405 nm): 37° C., 60 minutes, pH 8.0
Experimental: as §1
The observed magnitude of increase in absorbance in time is different for each of the examined samples.
Such a result may be due to the difference in the activity as well as the amount of enzymes responsible for the enzymatic cleavage (proteolysis). […] The result indicates the […] of proteolytic enzymes characteristic of liver cancer.

[5] = tested on: urine samples taken from healthy persons; experiment: Hydrolysis of the chromogenic substrate in urine from healthy subjects (absorbance at 405 nm); conditions: for Results of absorbance analysis (increase in absorbance, 405 nm): triplicate

ABZ-Lys-Ser-Ser-Asp-ANB-NH2 ([2Abz]KSSD-{Benzoyl(5-NH,2-NO2)-NH2}) [chromogenic/FRET peptide substrate; ABZ is 2-aminobenzoic acid, ANB-NH2 is amide of 5-amino-2-nitrobenzoic acid]
Cleavage / increase in absorbance in urine of other cancers ([1]; testicular, intestine, kidney, prostate, pancreatic, bile duct, lung, ovarian and rectum cancer): is not subject to cleavage
Measurement 1-3 (increase in absorbance) ([1]; cancer location Intestine): 0
Measurement 1-3 (increase in absorbance) ([1]; cancer location Kidney): 0
Measurement 1-3 (increase in absorbance) ([1]; cancer location Lung): 0
Measurement 1-3 (increase in absorbance) ([1]; cancer location Ovary): 0
Measurement 1-3 (increase in absorbance) ([1]; cancer location Pancreas): 0
Measurement 1-3 (increase in absorbance) ([1]; cancer location Prostate): 0
Measurement 1-3 (increase in absorbance) ([1]; cancer location Rectum): 0
Measurement 1-3 (increase in absorbance) ([1]; cancer location Testicle): 0
Measurement 1-3 (increase in absorbance) ([1]; cancer location bile ducts): 0
Cleavage products of the substrate (RP HPLC) [2]: cleaves into the peptide fragment ABZ-Lys-Ser-Ser-Asp-OH and the chromophore group of the compound (ANB-NH2)
Dependence of hydrolysis level on pH [3]: maximum activity at alkaline pH
Cleavage of the substrate in urine ([4]; all samples 1-20 from persons suffering from liver cancer): underwent cleavage
Results of absorbance analysis (increase in absorbance, 405 nm) ([4]; urine sample W1, liver cancer, triplicate): 0.03221 and 0.03351 and 0.02109
Results of absorbance analysis (increase in absorbance, 405 nm) ([4]; urine sample W2, liver cancer, triplicate): 0.02276 and 0.02037 and 0.02884
Results of absorbance analysis (increase in absorbance, 405 nm) ([4]; urine sample W4, liver cancer, triplicate): 0.02897 and 0.02718 and 0.02812
Results of absorbance analysis (increase in absorbance, 405 nm) ([4]; urine sample W5, liver cancer, triplicate): 0.171 and 0.1445 and 0.1684
Results of absorbance analysis (increase in absorbance, 405 nm) ([4]; urine sample W6, liver cancer, triplicate): 0.02035 and 0.01966 and 0.02513
Results of absorbance analysis (increase in absorbance, 405 nm) ([4]; urine sample W8, liver cancer, triplicate): 0.0186 and 0.0199 and 0.01818
Results of absorbance analysis (increase in absorbance, 405 nm) ([4]; urine sample W9, liver cancer, triplicate): 0.0313 and 0.02635 and 0.0275
Results of absorbance analysis (increase in absorbance, 405 nm) ([4]; urine sample W10, liver cancer, triplicate): 0.04583 and 0.03322 and 0.03755
Results of absorbance analysis (increase in absorbance, 405 nm) ([4]; urine sample W11, liver cancer, triplicate): 0.02091 and 0.01156 and 0.01536
Results of absorbance analysis (increase in absorbance, 405 nm) ([4]; urine sample W12, liver cancer, triplicate): 0.03055 and 0.02126 and 0.0183
Results of absorbance analysis (increase in absorbance, 405 nm) ([4]; urine sample W13, liver cancer, triplicate): 0.01583 and 0.01383 and 0.01431
Results of absorbance analysis (increase in absorbance, 405 nm) ([4]; urine sample W14, liver cancer, triplicate): 0.00394 and 0.00525 and 0.00441
Results of absorbance analysis (increase in absorbance, 405 nm) ([4]; urine sample W15, liver cancer, triplicate): 0.01622 and 0.01718 and 0.01233
Results of absorbance analysis (increase in absorbance, 405 nm) ([4]; urine sample W16, liver cancer, triplicate): 0.01265 and 0.01251 and 0.00722
Results of absorbance analysis (increase in absorbance, 405 nm) ([4]; urine sample W17, liver cancer, triplicate): 0.0012 and 0.0018 and 0.0015
Results of absorbance analysis (increase in absorbance, 405 nm) ([4]; urine sample W18, liver cancer, triplicate): 0.01937 and 0.01539 and 0.01955
Results of absorbance analysis (increase in absorbance, 405 nm) ([4]; urine sample W19, liver cancer, triplicate): 0.0091 and 0.0093 and 0.0089
Results of absorbance analysis (increase in absorbance, 405 nm) ([4]; urine sample W20, liver cancer, triplicate): 0.1528 and 0.1867 and 0.1909
Measurement 1-3 (increase in absorbance) ([4]; urine, cancer location Liver, selectivity test of Table 2, triplicate): 0.0067 and 0.0072 and 0.0056
Results of absorbance analysis (increase in absorbance, 405 nm) ([5]; urine sample 21, healthy person): 0.000000
Results of absorbance analysis (increase in absorbance, 405 nm) ([5]; urine sample 22, healthy person): 0.000000
Results of absorbance analysis (increase in absorbance, 405 nm) ([5]; urine sample 23, healthy person): 0.000000
Results of absorbance analysis (increase in absorbance, 405 nm) ([5]; urine sample 24, healthy person): 0.000000
Results of absorbance analysis (increase in absorbance, 405 nm) ([5]; urine sample 25, healthy person): 0.000000
Results of absorbance analysis (increase in absorbance, 405 nm) ([5]; urine sample 26, healthy person): 0.000000
Results of absorbance analysis (increase in absorbance, 405 nm) ([5]; urine sample 27, healthy person): 0.000000
Results of absorbance analysis (increase in absorbance, 405 nm) ([5]; urine sample 28, healthy person): 0.000000
Results of absorbance analysis (increase in absorbance, 405 nm) ([5]; urine sample 29, healthy person): 0.000000
Results of absorbance analysis (increase in absorbance, 405 nm) ([5]; urine sample 30, healthy person): 0.000000
Results of absorbance analysis (increase in absorbance, 405 nm) ([5]; urine sample 31, healthy person): 0.000000
Results of absorbance analysis (increase in absorbance, 405 nm) ([5]; urine sample 32, healthy person): 0.000000
Results of absorbance analysis (increase in absorbance, 405 nm) ([5]; urine sample 33, healthy person): 0.000000
Results of absorbance analysis (increase in absorbance, 405 nm) ([5]; urine sample 34, healthy person): 0.000000
Results of absorbance analysis (increase in absorbance, 405 nm) ([5]; urine sample 35, healthy person): 0.000000
Results of absorbance analysis (increase in absorbance, 405 nm) ([5]; urine sample 36, healthy person): 0.000000
Results of absorbance analysis (increase in absorbance, 405 nm) ([5]; urine sample 37, healthy person): 0.000000
Results of absorbance analysis (increase in absorbance, 405 nm) ([5]; urine sample 38, healthy person): 0.000000
Results of absorbance analysis (increase in absorbance, 405 nm) ([5]; urine sample 39, healthy person): 0.000000
Results of absorbance analysis (increase in absorbance, 405 nm) ([5]; urine sample 40, healthy person): 0.000000
Increase in absorbance / hydrolysis in urine ([5]; urine samples 21 to 40 from healthy persons): does not lead to an increase in absorbance

— patent US20240353410A1, “FRET ENZYMATIC SUBSTRATE AND USES THEREOF IN LIVER CANCER” (URTESTE S.A., priority 2021, published 2024)
